Data from publication PMC7472518, “Ultrasensitive Detection of Enzymatic Activity Using Single Molecule Arrays” (Journal of the American Chemical Society, 2020).
Structures can show the parent of a compound that is named as a salt.

Legend:
[1] = system: Bcr-Abl; conditions: read-out: IC50 (reported); cited from earlier work
[2] = biological target: T1, Src (Homo sapiens, UniProt P12931); assay: eSimoa ATP titration for Km, Src; format: biochemical; conditions: calculated from the EC50 of the ATP response curve
T1 construct: purchased Millipore (Burlington, MA) 14-326
Excerpt: (§1) We first determined the Km values for Src and Abl. Different concentrations of ATP were used in the phosphorylation reaction, while the concentrations of peptide-modified beads and enzymes were kept constant.

[3] = biological target: T2, Abl (Homo sapiens, UniProt P00519); assay: eSimoa ATP titration for Km, Abl; format: biochemical; conditions: calculated from the EC50 of the ATP response curve
T2 construct: purchased Millipore (Burlington, MA) 14-529
T2 sequence (P00519 whole entry): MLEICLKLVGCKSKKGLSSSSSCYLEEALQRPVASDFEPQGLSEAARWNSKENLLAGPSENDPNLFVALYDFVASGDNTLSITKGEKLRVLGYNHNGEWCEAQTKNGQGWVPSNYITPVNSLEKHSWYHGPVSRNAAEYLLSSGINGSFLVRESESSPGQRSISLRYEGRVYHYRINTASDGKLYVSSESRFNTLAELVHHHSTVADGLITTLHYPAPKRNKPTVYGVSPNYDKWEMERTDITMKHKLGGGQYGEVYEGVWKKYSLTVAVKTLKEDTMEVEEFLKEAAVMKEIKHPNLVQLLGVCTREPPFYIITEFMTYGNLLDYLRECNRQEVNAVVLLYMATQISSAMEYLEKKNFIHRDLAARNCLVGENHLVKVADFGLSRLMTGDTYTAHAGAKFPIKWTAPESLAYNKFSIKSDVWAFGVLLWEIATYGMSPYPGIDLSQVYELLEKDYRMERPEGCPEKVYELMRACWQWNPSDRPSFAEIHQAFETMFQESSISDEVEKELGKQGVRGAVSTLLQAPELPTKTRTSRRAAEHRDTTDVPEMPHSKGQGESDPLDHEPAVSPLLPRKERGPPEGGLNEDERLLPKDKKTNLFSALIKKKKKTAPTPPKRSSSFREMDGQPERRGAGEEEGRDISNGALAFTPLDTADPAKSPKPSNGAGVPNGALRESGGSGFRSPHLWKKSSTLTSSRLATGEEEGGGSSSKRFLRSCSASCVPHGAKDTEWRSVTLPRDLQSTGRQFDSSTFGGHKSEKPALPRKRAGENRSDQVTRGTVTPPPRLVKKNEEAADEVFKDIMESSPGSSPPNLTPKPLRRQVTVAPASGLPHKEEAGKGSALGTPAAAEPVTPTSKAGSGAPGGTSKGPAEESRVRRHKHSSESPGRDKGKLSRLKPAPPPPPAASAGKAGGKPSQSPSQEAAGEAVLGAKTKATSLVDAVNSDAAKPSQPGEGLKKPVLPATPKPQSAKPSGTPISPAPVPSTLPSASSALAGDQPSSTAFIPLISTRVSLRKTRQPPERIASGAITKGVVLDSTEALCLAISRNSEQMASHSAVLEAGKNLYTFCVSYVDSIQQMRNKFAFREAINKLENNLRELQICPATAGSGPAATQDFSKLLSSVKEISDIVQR
Excerpt: as §1

SMILES | IC50 [1] | Km [2] | Km [3]
Nc1ncnc2c1ncn2[C@@H]1O[C@H](COP(=O)(O)OP(=O)(O)OP(=O)(O)O)[C@@H](O)[C@H]1O [ATP, adenosine 5′-triphosphate (ATP) disodium salt hydrate] | – | 29.2 µM | 3.69 µM
